Source: ChEMBL document CHEMBL3885881, “DrugMatrix”

Species: Rattus norvegicus
Test: DrugMatrix - Regimen: Daily Repeat
Type: toxicity, organism-based, Sprague-Dawley
Set-up: regimen Daily Repeat, gender Male, age 6-8 weeks
Conditions: in vivo, po, route oral GAVAGE, vehicle .5 % CMC; for ABSOLUTE BASOPHIL / ABSOLUTE EOSINOPHIL / ABSOLUTE LYMPHOCYTE / ABSOLUTE MONOCYTE / ABSOLUTE SEGMENTED NEUTROPHIL / BASOPHIL / EOSINOPHIL / ERYTHROCYTE COUNT / HEMATOCRIT / HEMOGLOBIN / LEUKOCYTE COUNT / LYMPHOCYTE / MEAN CORPUSCULAR HEMOGLOBIN / MEAN CORPUSCULAR HEMOGLOBIN CONCENTRATION / MEAN CORPUSCULAR VOLUME / MONOCYTE / NEUTROPHIL / NUCLEATED RED BLOOD CELLS / PLATELET COUNT: tissue Blood; for ALANINE AMINOTRANSFERASE / ALBUMIN / ALKALINE PHOSPHATASE / ASPARTATE AMINOTRANSFERASE / BLOOD UREA NITROGEN / CARBON DIOXIDE / CHLORIDE / CHOLESTEROL / CREATINE PHOSPHOKINASE / CREATININE / GLUCOSE / LACTATE DEHYDROGENASE / LIPASE / PHOSPHORUS / POTASSIUM / SODIUM / TOTAL BILIRUBIN / TOTAL PROTEIN / URIC ACID: tissue Plasma
[1] = 16 mg/kg, 120 h, dose level Low, time 5 day
[2] = 94 mg/kg, 72 h, dose level High, time 3 day
[3] = 94 mg/kg, 120 h, dose level High, time 5 day

SMILES: CCOC(=O)OC(C)OC1=C(C(=O)Nc2ccccn2)N(C)S(=O)(=O)c2ccccc21 (centres undefined) [AMPIROXICAM]
- ABSOLUTE BASOPHIL [1]: 0 CELLS/uL
- ABSOLUTE EOSINOPHIL [1]: 0 CELLS/uL
- ABSOLUTE LYMPHOCYTE [1]: 8819 CELLS/uL
- ABSOLUTE MONOCYTE [1]: 212 CELLS/uL
- ABSOLUTE SEGMENTED NEUTROPHIL [1]: 1469 CELLS/uL
- BASOPHIL [1]: 0%
- EOSINOPHIL [1]: 0%
- ERYTHROCYTE COUNT [1]: 5.59 x10E6/uL
- HEMATOCRIT [1]: 33.9%
- HEMOGLOBIN [1]: 12.8 G/DL
- LEUKOCYTE COUNT [1]: 10.5 x10E3/uL
- LYMPHOCYTE [1]: 84%
- MEAN CORPUSCULAR HEMOGLOBIN [1]: 22.9 pg
- MEAN CORPUSCULAR HEMOGLOBIN CONCENTRATION [1]: 37.77 G/DL
- MEAN CORPUSCULAR VOLUME [1]: 60.67 fL
- MONOCYTE [1]: 2.33%
- NEUTROPHIL [1]: 13.67%
- NUCLEATED RED BLOOD CELLS [1]: 0 /100WBC
- PLATELET COUNT [1]: 1100 x10E3/uL
- ALANINE AMINOTRANSFERASE [1]: 50.33 u/L
- ALBUMIN [1]: 4.2 G/DL
- ALKALINE PHOSPHATASE [1]: 430.67 u/L
- ASPARTATE AMINOTRANSFERASE [1]: 70.67 u/L
- BLOOD UREA NITROGEN [1]: 13.67 mg/dL
- CARBON DIOXIDE [1]: 26 mmol/L
- CHLORIDE [1]: 101.67 MEQ/L
- CHOLESTEROL [1]: 67.67 mg/dL
- CREATINE PHOSPHOKINASE [1]: 214.67 u/L
- CREATININE [1]: 0.26 mg/dL
- GLUCOSE [1]: 161.33 mg/dL
- LACTATE DEHYDROGENASE [1]: 71.67 u/L
- LIPASE [1]: 8.67 u/L
- PHOSPHORUS [1]: 11.93 mg/dL
- POTASSIUM [1]: 6.36 MEQ/L
- SODIUM [1]: 144.83 MEQ/L
- TOTAL BILIRUBIN [1]: 0.17 mg/dL
- TOTAL PROTEIN [1]: 6.1 G/DL
- URIC ACID [1]: 1.73 mg/dL
- ABSOLUTE BASOPHIL [2]: 0 CELLS/uL
- ABSOLUTE EOSINOPHIL [2]: 73 CELLS/uL
- ABSOLUTE LYMPHOCYTE [2]: 14276.67 CELLS/uL
- ABSOLUTE MONOCYTE [2]: 831.33 CELLS/uL
- ABSOLUTE SEGMENTED NEUTROPHIL [2]: 1685.67 CELLS/uL
- BASOPHIL [2]: 0%
- EOSINOPHIL [2]: 0.33%
- ERYTHROCYTE COUNT [2]: 4.7 x10E6/uL
- HEMATOCRIT [2]: 28.03%
- HEMOGLOBIN [2]: 11.03 G/DL
- LEUKOCYTE COUNT [2]: 16.87 x10E3/uL
- LYMPHOCYTE [2]: 85.33%
- MEAN CORPUSCULAR HEMOGLOBIN [2]: 23.5 pg
- MEAN CORPUSCULAR HEMOGLOBIN CONCENTRATION [2]: 39.33 G/DL
- MEAN CORPUSCULAR VOLUME [2]: 59.67 fL
- MONOCYTE [2]: 5%
- NEUTROPHIL [2]: 9.33%
- NUCLEATED RED BLOOD CELLS [2]: 0 /100WBC
- PLATELET COUNT [2]: 907 x10E3/uL
- ALANINE AMINOTRANSFERASE [2]: 30 u/L
- ALBUMIN [2]: 2.33 G/DL
- ALKALINE PHOSPHATASE [2]: 163.67 u/L
- ASPARTATE AMINOTRANSFERASE [2]: 53 u/L
- BLOOD UREA NITROGEN [2]: 10 mg/dL
- CARBON DIOXIDE [2]: 27.67 mmol/L
- CHLORIDE [2]: 103.67 MEQ/L
- CHOLESTEROL [2]: 107.67 mg/dL
- CREATINE PHOSPHOKINASE [2]: 224.33 u/L
- CREATININE [2]: 0.21 mg/dL
- GLUCOSE [2]: 142.33 mg/dL
- LACTATE DEHYDROGENASE [2]: 128 u/L
- LIPASE [2]: 11.33 u/L
- PHOSPHORUS [2]: 11.57 mg/dL
- POTASSIUM [2]: 6.23 MEQ/L
- SODIUM [2]: 144.1 MEQ/L
- TOTAL BILIRUBIN [2]: 0.13 mg/dL
- TOTAL PROTEIN [2]: 4.43 G/DL
- URIC ACID [2]: 1.57 mg/dL
- ABSOLUTE BASOPHIL [3]: 0 CELLS/uL
- ABSOLUTE EOSINOPHIL [3]: 0 CELLS/uL
- ABSOLUTE LYMPHOCYTE [3]: 17904 CELLS/uL
- ABSOLUTE MONOCYTE [3]: 540 CELLS/uL
- ABSOLUTE SEGMENTED NEUTROPHIL [3]: 3956 CELLS/uL
- BASOPHIL [3]: 0%
- EOSINOPHIL [3]: 0%
- ERYTHROCYTE COUNT [3]: 3.63 x10E6/uL
- HEMATOCRIT [3]: 21.55%
- HEMOGLOBIN [3]: 8.6 G/DL
- LEUKOCYTE COUNT [3]: 22.4 x10E3/uL
- LYMPHOCYTE [3]: 81%
- MEAN CORPUSCULAR HEMOGLOBIN [3]: 23.8 pg
- MEAN CORPUSCULAR HEMOGLOBIN CONCENTRATION [3]: 40.05 G/DL
- MEAN CORPUSCULAR VOLUME [3]: 59.25 fL
- MONOCYTE [3]: 2.5%
- NEUTROPHIL [3]: 16.5%
- NUCLEATED RED BLOOD CELLS [3]: 2.5 /100WBC
- PLATELET COUNT [3]: 1838 x10E3/uL
- ALANINE AMINOTRANSFERASE [3]: 30 u/L
- ALBUMIN [3]: 2.85 G/DL
- ALKALINE PHOSPHATASE [3]: 259 u/L
- ASPARTATE AMINOTRANSFERASE [3]: 60.5 u/L
- BLOOD UREA NITROGEN [3]: 13 mg/dL
- CARBON DIOXIDE [3]: 23.5 mmol/L
- CHLORIDE [3]: 104 MEQ/L
- CHOLESTEROL [3]: 67 mg/dL
- CREATINE PHOSPHOKINASE [3]: 290 u/L
- CREATININE [3]: 0.21 mg/dL
- GLUCOSE [3]: 136.5 mg/dL
- LACTATE DEHYDROGENASE [3]: 87 u/L
- LIPASE [3]: 9.5 u/L
- PHOSPHORUS [3]: 11.1 mg/dL
- POTASSIUM [3]: 6.99 MEQ/L
- SODIUM [3]: 141.6 MEQ/L
- TOTAL BILIRUBIN [3]: 0.1 mg/dL
- TOTAL PROTEIN [3]: 4.95 G/DL
- URIC ACID [3]: 1.75 mg/dL
